From patent US6720346B2, “Thiazole benzamide derivatives and pharmaceutical compositions for inhibiting cell proliferation” (Agouron Pharmaceuticals, Inc., priority 2001, dated 2004) come the findings set out here.

The test system of one assay is HCT-116 cell line. Briefly: Inhibition of cell growth, MTT tetrazolium salt assay. The assay is classed as cell-based. In outline: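 HCT-116 cells in McCoy's 5A were dosed 4 h after plating with compounds in 0.5% DMSO and grown 3–5 days at 37 °C. Then 0.2 mg/mL MTT was added for 4 h and formazan absorbance read at 540 nm. IC50/IC90 came from semi-log plots against DMSO-only controls.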
For orientation: Formazan colour is commonly taken as a measure of viable cells.

Another assay addresses T1, CDK2/cyclin A (Homo sapiens, UniProt P24941).
T1 construct: made in house; host or cells: CDK2: insect cells (baculovirus); cyclin A: E. coli
Briefly: Inhibition of CDK2/cyclin A retinoblastoma kinase activity (Ki; % inhibition). The assay is classed as biochemical. In a few lines:
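Apparent Ki values came from fitting concentration-dependent activity data to competitive (or competitive tight-binding) models, and % inhibition from single 30 nM screens of library compounds. Activity was measured as ³²P/³³P incorporation from 25 μM ATP into an Rb substrate by 10 or 19 nM CDK2/delta cyclin A at 30 °C over 60–75 min, pH 7.4.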

A further assay concerns the target T2, human CDK4/cyclin D3 (Homo sapiens, UniProt P11802).
T2 construct: made in house; host or cells: insect cells co-infected with baculovirus vectors
Briefly: Inhibition of CDK4/cyclin D retinoblastoma kinase activity (Ki; % inhibition). The assay is classed as biochemical. In a few lines:
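Radiometric filter-binding read-out: Rb residues 386-928 phosphorylated by 5 nM CDK4/cyclin D3(1-264) from baculovirus-infected insect cells, 25 μM ATP, HEPES pH 7.4, 30 °C. Run 20 min, or 60 min for tight-binding inhibitors. Screening at 30 nM theoretical compound; apparent Ki by competitive-inhibition fitting.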

Where [1] appears, read: HCT-116 cells, 0.25 μM compound.

Each structure is given as a SMILES string.

T2 sequence (P11802 whole entry): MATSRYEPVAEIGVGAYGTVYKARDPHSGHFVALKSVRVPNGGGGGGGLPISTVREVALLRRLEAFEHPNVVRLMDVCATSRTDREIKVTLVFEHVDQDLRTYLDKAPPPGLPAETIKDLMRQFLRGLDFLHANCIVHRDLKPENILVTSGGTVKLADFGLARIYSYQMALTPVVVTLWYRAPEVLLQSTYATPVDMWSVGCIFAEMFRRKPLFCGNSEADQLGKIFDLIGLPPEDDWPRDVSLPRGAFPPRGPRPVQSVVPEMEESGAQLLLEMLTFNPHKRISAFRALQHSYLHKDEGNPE
T2 sequence (P30281 1-264 partner limits assumed): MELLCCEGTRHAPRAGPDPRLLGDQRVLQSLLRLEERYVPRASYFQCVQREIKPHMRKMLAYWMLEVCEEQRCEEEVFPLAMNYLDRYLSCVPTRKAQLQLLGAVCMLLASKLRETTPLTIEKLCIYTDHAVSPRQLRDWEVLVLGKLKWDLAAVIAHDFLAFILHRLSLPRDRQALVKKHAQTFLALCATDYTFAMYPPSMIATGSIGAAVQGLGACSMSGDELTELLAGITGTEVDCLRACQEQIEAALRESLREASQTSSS

`Nc1nc(Nc2ccc(C(=O)NC3CCS(=O)(=O)C3)cc2)sc1C(=O)c1c(F)cccc1F` (stereo not drawn) [Example G120]: in the assay with HCT-116 cell line (HCT-116, at 0.1 μM), the “HCT-116 % Inhibition at 0.1 μM” value turned out to be 0%. Moreover, in the assay on HCT-116 cell line (HCT-116, at 0.25 μM), the “HCT-116 % Inhibition at 0.25 μM” value amounted to 54%. Further, the “CDK2 % Inhibition at 0.03 μM” value on CDK2/cyclin A (at 0.03 μM) turned out to be 14%. In addition, on human CDK4/cyclin D3 (at 0.03 μM), the “CDK4 % Inhibition at 0.03 μM” value came to 23%.

With `COc1ccc(NC(=O)c2ccc(Nc3nc(N)c(C(=O)c4c(F)cccc4F)s3)cc2)c(OC)c1` [Example G45], in the assay with HCT-116 cell line (HCT-116, at 0.25 μM), the “HCT-116 % Inhibition at 0.25 μM” value amounted to 89%. The “CDK2 % Inhibition at 0.03 μM” value on CDK2/cyclin A (at 0.03 μM) came to 16%. Also, the “CDK4 % Inhibition at 0.03 μM” value at human CDK4/cyclin D3 (at 0.03 μM) is given as 16%.

In the case of `Nc1nc(Nc2ccc(C(=O)Nc3ccc4c(c3)OCO4)cc2)sc1C(=O)c1c(F)cccc1F` [Example G52], the “HCT-116 % Inhibition at 0.25 μM” value in the assay on HCT-116 cell line (HCT-116, at 0.25 μM) is on record as 65%. Moreover, the “CDK2 % Inhibition at 0.03 μM” value at CDK2/cyclin A (at 0.03 μM) worked out at 10%. In addition, the “CDK4 % Inhibition at 0.03 μM” value at human CDK4/cyclin D3 (at 0.03 μM) is on record as 5%.

Take `Nc1nc(Nc2ccc(C(=O)NC3CCN(Cc4ccccc4)C3)cc2)sc1C(=O)c1c(F)cccc1F` (stereo not drawn) [Example G353]: the “HCT-116 % Inhibition at 0.1 μM” value with HCT-116 cell line (HCT-116 cells, 0.1 μM compound, 0.1 µM) was determined as 0%. For the same compound, the “HCT-116 % Inhibition at 0.25 μM” value in the assay with HCT-116 cell line (HCT-116 cells, 0.25 μM compound, 0.25 µM) is listed as 55%. Further, the “CDK2 % Inhibition at 0.03 μM” value at CDK2/cyclin A (0.03 μM compound, 0.03 µM) stood at 35%. In addition, on human CDK4/cyclin D3 (0.03 μM compound, 0.03 µM), the “CDK4 % Inhibition at 0.03 μM” value worked out at 46%.

In the case of `Nc1nc(Nc2ccc(C(=O)NCc3cccc(Cl)c3Cl)cc2)sc1C(=O)c1c(F)cccc1F` [Example G216], in the assay on HCT-116 cell line (HCT-116 cells, 0.1 μM compound), the “HCT-116 % Inhibition at 0.1 μM” value turned out to be 16%. Moreover, the “HCT-116 % Inhibition at 0.25 μM” value with HCT-116 cell line (setting [1]) was determined as 54%. Moreover, the “CDK2 % Inhibition at 0.03 μM” value on CDK2/cyclin A (0.03 μM compound) was 29%. Further, the “CDK4 % Inhibition at 0.03 μM” value at human CDK4/cyclin D3 (0.03 μM compound) turned out to be 36%.

Regarding `Nc1nc(Nc2ccc(C(=O)N3CCCC3)cc2)sc1C(=O)c1c(F)cccc1F` [Example G47], the “HCT-116 % Inhibition at 0.25 μM” value in the assay on HCT-116 cell line (HCT-116, at 0.25 μM) was determined as 53%. For the same compound, the “CDK2 % Inhibition at 0.03 μM” value on CDK2/cyclin A (at 0.03 μM) is −15%. For the same compound, on human CDK4/cyclin D3 (at 0.03 μM), the “CDK4 % Inhibition at 0.03 μM” value came out at 6%.

As for `Nc1nc(Nc2ccc(C(=O)NCCCN3CCCC3)cc2)sc1C(=O)c1c(F)cccc1F` [Example G158], the “HCT-116 % Inhibition at 0.1 μM” value in the assay on HCT-116 cell line (HCT-116, at 0.1 μM) was determined as 0%. In addition, the “HCT-116 % Inhibition at 0.25 μM” value in the assay on HCT-116 cell line (HCT-116, at 0.25 μM) is given as 73%. Moreover, the “CDK2 % Inhibition at 0.03 μM” value at CDK2/cyclin A (at 0.03 μM) is on record as 22%. For the same compound, the “CDK4 % Inhibition at 0.03 μM” value at human CDK4/cyclin D3 (at 0.03 μM) was determined as 40%.

Take `CN(C)CCCNC(=O)c1ccc(Nc2nc(N)c(C(=O)c3c(F)cccc3F)s2)cc1` [Example G119]: in the assay on HCT-116 cell line (HCT-116, at 0.1 μM), the “HCT-116 % Inhibition at 0.1 μM” value was found to be 0%. Moreover, in the assay with HCT-116 cell line (HCT-116, at 0.25 μM), the “HCT-116 % Inhibition at 0.25 μM” value turned out to be 64%. The “CDK2 % Inhibition at 0.03 μM” value at CDK2/cyclin A (at 0.03 μM) was 11%. Further, the “CDK4 % Inhibition at 0.03 μM” value at human CDK4/cyclin D3 (at 0.03 μM) was 31%.

On to `COC(=O)c1ccccc1NC(=O)c1ccc(Nc2nc(N)c(C(=O)c3c(F)cccc3F)s2)cc1` [Example G39], for which, in the assay on HCT-116 cell line (HCT-116, at 0.25 μM), the “HCT-116 % Inhibition at 0.25 μM” value is reported as 65%. Moreover, at CDK2/cyclin A (at 0.03 μM), the “CDK2 % Inhibition at 0.03 μM” value was −4%. Also, the “CDK4 % Inhibition at 0.03 μM” value at human CDK4/cyclin D3 (at 0.03 μM) is on record as −1%.

Regarding `COc1cccc(CCNC(=O)c2ccc(Nc3nc(N)c(C(=O)c4c(F)cccc4F)s3)cc2)c1OC` [Example G203], the “HCT-116 % Inhibition at 0.1 μM” value in the assay on HCT-116 cell line (HCT-116 cells, 0.1 μM compound) is given as 18%. In the assay on HCT-116 cell line (setting [1]), the “HCT-116 % Inhibition at 0.25 μM” value is on record as 53%. Besides, on CDK2/cyclin A (0.03 μM compound), the “CDK2 % Inhibition at 0.03 μM” value is given as 7%. In addition, the “CDK4 % Inhibition at 0.03 μM” value at human CDK4/cyclin D3 (0.03 μM compound) worked out at 20%.

Regarding `CC(C)[C@@H](CO)NC(=O)c1ccc(Nc2nc(N)c(C(=O)c3c(F)cccc3F)s2)cc1` [Example G152], in the assay on HCT-116 cell line (HCT-116, at 0.1 μM), the “HCT-116 % Inhibition at 0.1 μM” value amounted to 5%. Further, the “HCT-116 % Inhibition at 0.25 μM” value in the assay with HCT-116 cell line (HCT-116, at 0.25 μM) was 53%. Besides, the “CDK2 % Inhibition at 0.03 μM” value on CDK2/cyclin A (at 0.03 μM) worked out at 16%. In addition, the “CDK4 % Inhibition at 0.03 μM” value on human CDK4/cyclin D3 (at 0.03 μM) came out at 7%.

As to `CCN(CC)CCN(CC)C(=O)c1ccc(Nc2nc(N)c(C(=O)c3c(F)cccc3F)s2)cc1` [Example G35], the “HCT-116 % Inhibition at 0.25 μM” value in the assay with HCT-116 cell line (HCT-116, at 0.25 μM) was 53%. The “CDK2 % Inhibition at 0.03 μM” value on CDK2/cyclin A (at 0.03 μM) was 5%. Moreover, the “CDK4 % Inhibition at 0.03 μM” value on human CDK4/cyclin D3 (at 0.03 μM) was determined as 8%.

With `Cc1ccc(NC(=O)c2ccc(Nc3nc(N)c(C(=O)c4c(F)cccc4F)s3)cc2)c(F)c1` [Example G284], in the assay on HCT-116 cell line (HCT-116 cells, 0.1 μM compound), the “HCT-116 % Inhibition at 0.1 μM” value is listed as 4%. Besides, the “HCT-116 % Inhibition at 0.25 μM” value with HCT-116 cell line (setting [1]) is 69%. For the same compound, the “CDK2 % Inhibition at 0.03 μM” value at CDK2/cyclin A (0.03 μM compound) was −30%. Further, the “CDK4 % Inhibition at 0.03 μM” value on human CDK4/cyclin D3 (0.03 μM compound) is recorded as −12%.

On to `CCOC(=O)c1ccccc1NC(=O)c1ccc(Nc2nc(N)c(C(=O)c3c(F)cccc3F)s2)cc1` [Example G46], for which, in the assay on HCT-116 cell line (HCT-116, at 0.25 μM), the “HCT-116 % Inhibition at 0.25 μM” value is on record as 58%. The “CDK2 % Inhibition at 0.03 μM” value on CDK2/cyclin A (at 0.03 μM) is reported as 4%. Besides, the “CDK4 % Inhibition at 0.03 μM” value on human CDK4/cyclin D3 (at 0.03 μM) came out at 11%.

In the case of `CCSCCNC(=O)c1ccc(Nc2nc(N)c(C(=O)c3c(F)cccc3F)s2)cc1` [Example G283], the “HCT-116 % Inhibition at 0.1 μM” value with HCT-116 cell line (HCT-116 cells, 0.1 μM compound) turned out to be 16%. Moreover, in the assay on HCT-116 cell line (setting [1]), the “HCT-116 % Inhibition at 0.25 μM” value was 75%. For the same compound, the “CDK2 % Inhibition at 0.03 μM” value on CDK2/cyclin A (0.03 μM compound) is reported as −6%. The “CDK4 % Inhibition at 0.03 μM” value at human CDK4/cyclin D3 (0.03 μM compound) is on record as 10%.
